Experiments:
Assay type in all cases: in vivo
[1] = test system: corn; assay: Test Example 1: post-emergence foliar spray pot test, safety against useful plants (phytotoxicity); conditions: for Corn (phytotoxicity score): foliar spray 204 L/ha on plants grown 15 days, assessed after 11 days in greenhouse
From the text: Further, Test Examples are used to show an efficacy of the compound A on controlling weeds and safety against useful plants (phytotoxicity)
(§1) In the Test Examples as described below, for the assessment of weeds-controlling efficacy, the efficacy is defined as “0” if the condition of budding or growth of test pants in the treated area indicates little or no difference compared to that of the untreated area at the time of the investigation.
(§2) The “untreated group” represents a group where a similar treatment procedure to that of the treated group except not using the compound A is done.
(§3) A plastic pot was filled with soil. Ivyleaf morning glory (Ipomoea hederacea), Redroot pigweed (Amaranthus retroflexus) and corn were seeded to the plastic pot, and the plants are grown in a greenhouse for 15 days. A prescribed amount of the formulation prepared by the method of the formulation example 1 was diluted with water containing 1% of Agridex (registered trademark) to obtain a diluted solution. The diluted solution was uniformly sprayed at a rate of 204 L/ha from the upper side of the plants such that the applied dose of the compound A was made to 20 gai/ha or 10 gai/ha. Thereafter, the plants were grown in a greenhouse for 11 days, and the control efficacies were assessed by the above-mentioned method. The results are shown in [Table 1].
(§4) The comparative test was conducted by using the compound B in place of the compound A according to a similar method to that described in the Test example 1.

[2] = test system: Redroot pigweed (Amaranthus retroflexus); assay: Test Example 1: post-emergence foliar spray pot test, weed control efficacy; conditions: for efficacy on controlling weeds against Redroot pigweed (Amaranthus retroflexus), in words: 20 or 10 gai/ha; for control efficacy, Amaranthus retroflexus: foliar spray 204 L/ha on plants grown 15 days, assessed after 11 days in greenhouse
From the text: as §1, §2, §3, §4

[3] = test system: Ivyleaf morning glory (Ipomoea hederacea); assay: as above; conditions: for efficacy on controlling weeds against Ivyleaf morning glory (Ipomoea hederacea), in words: 20 or 10 gai/ha; for control efficacy, Ipomoea hederacea: foliar spray 204 L/ha on plants grown 15 days, assessed after 11 days in greenhouse, scale 0 to 100 (all dead)
From the text: as §1, §2, §3, §4

[4] = applied dose 10 gai/ha, scale 0 to 100 (all dead)
[5] = applied dose 20 gai/ha, scale 0 (no difference to untreated) to 100 (all dead)

Row | Compound | phytotoxicity against corn, in words ([1]; in vivo) | efficacy on controlling weeds against Redroot pigweed (Amaranthus retroflexus), in words [2] | control efficacy, Amaranthus retroflexus [2, 4] | control efficacy, Amaranthus retroflexus [2, 5] | efficacy on controlling weeds against Ivyleaf morning glory (Ipomoea hederacea), in words [3] | control efficacy, Ipomoea hederacea ([3]; applied dose 10 gai/ha) | control efficacy, Ipomoea hederacea ([3]; applied dose 20 gai/ha) | phytotoxicity against corn, in words ([1]; 20 or 10 gai/ha) | Corn (phytotoxicity score) [1, 4] | Corn (phytotoxicity score) [1, 5]
1 | CCOC(=O)COc1ncccc1Oc1cc(-n2c(=O)cc(C(F)(F)F)n(C)c2=O)c(Cl)cc1Cl [Compound A] | low phytotoxicity | high efficacies | 100 | 100 | high efficacies | 100 | 100 |  |  | 
2 | CCOC(=O)COc1ncccc1Oc1cc(-n2c(=O)cc(C(F)(F)F)n(C)c2=O)c(F)cc1Cl [Compound B] |  | high efficacies | 100 | 100 | high efficacies | 100 | 100 | high phytotoxicity | 100 | 100

Source: US11932623B2, “Uracil compounds and use thereof” (Sumitomo Chemical Company, Limited, priority 2018, dated 2024)
